Reference: patent publication US8722937B2 (priority 2006, dated 2014)
Values after ≈ are worked out from the molar mass of the structure shown. Marks after values point to notes of the source that are not given here.

How the values were obtained:
B. anthracis = conditions: cited from earlier work
[1] = biological target: T1, FabH derived from E. coli (ecFabH) (Escherichia coli, UniProt P0A6R0); assay: FabH enzyme assay (coupled trichloroacetic acid precipitation assay), ecFabH; format: biochemical; conditions: for Percent inhibition of ecFabH: 1 μM of test compound; for IC50: 15 min preincubation at 23° C., duplicate assays, read-out: IC50 against ecFabH
T1 construct: polyhistidine (N); made in house; host or cells: E. coli
T1 sequence (P0A6R0 1-317): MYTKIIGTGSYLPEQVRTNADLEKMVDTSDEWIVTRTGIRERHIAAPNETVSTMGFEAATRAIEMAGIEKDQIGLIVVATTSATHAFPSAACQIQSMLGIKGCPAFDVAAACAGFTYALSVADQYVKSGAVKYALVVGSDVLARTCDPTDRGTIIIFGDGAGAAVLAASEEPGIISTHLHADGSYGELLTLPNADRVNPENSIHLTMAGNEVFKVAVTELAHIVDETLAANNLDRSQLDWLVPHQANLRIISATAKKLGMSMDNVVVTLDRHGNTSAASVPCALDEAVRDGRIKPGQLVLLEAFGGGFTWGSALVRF

[2] = biological target: FabH derived from M. tuberculosis (mtFabH) (Mycobacterium tuberculosis, UniProt P9WNG3); conditions: for Percent inhibition of mtFabH: 10 µM; for IC50: read-out: IC50 against mtFabH
FabH derived from M. tuberculosis (mtFabH), sequence (P9WNG3 whole entry): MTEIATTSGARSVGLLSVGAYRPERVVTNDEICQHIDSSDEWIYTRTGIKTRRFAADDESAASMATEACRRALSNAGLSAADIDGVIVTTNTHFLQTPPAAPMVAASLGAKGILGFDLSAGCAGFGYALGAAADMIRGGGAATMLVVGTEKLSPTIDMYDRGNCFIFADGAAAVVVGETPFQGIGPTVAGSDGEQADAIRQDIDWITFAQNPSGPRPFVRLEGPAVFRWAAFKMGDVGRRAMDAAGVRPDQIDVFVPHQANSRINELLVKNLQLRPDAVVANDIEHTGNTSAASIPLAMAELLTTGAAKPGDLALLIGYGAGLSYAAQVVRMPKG

S. aureus (ATCC 25923) [3] = conditions: MSSA ATCC 25923; data taken from ref. 6; cited from earlier work
[4] = system: methicillin-resistant S. aureus (MRSA); conditions: MRSA ATCC 43300; data taken from ref. 6; cited from earlier work
S. aureus (ATCC 25923) [5] = conditions: MSSA ATCC 25923; data from ref. 6 (PenG, 2g) or ref. 52 (vancomycin); cited from earlier work
MRSA (ATCC 43300) = conditions: MRSA ATCC 43300; data taken from ref. 6; cited from earlier work
S. aureus (ATCC 25923) [6] = assay: microbe, parasite or virus in culture; format: cell-based, Staphylococcus aureus; conditions: 24 h, 37° C.
[7] = system: methicillin-resistant S. aureus (MRSA); assay: microbe, parasite or virus in culture; format: cell-based, Staphylococcus aureus; conditions: 24 h, 37° C.
M. tuberculosis = conditions: reported by Jones et al.; cited from earlier work

SMILES: O=C(O)c1cn(C2CC2)c2cc(N3CCNCC3)c(F)cc2c1=O [Ciprofloxacin]
- reported value for Ciprofloxacin (for 50% growth inhibition) (B. anthracis): 0.094

SMILES: COC1C(=O)N(SC)C1c1ccccc1Cl (stereo not drawn) [Compound 2a]
- Percent inhibition of ecFabH [1]: 89%
- Percent inhibition of mtFabH [2]: 75%

SMILES: CCC(C)SN1C(=O)C(OC)C1c1ccccc1Cl (stereo not drawn) [Compound 2g]
- Percent inhibition of ecFabH [1]: 30%
- Percent inhibition of mtFabH [2]: 4%
- Zone (MSSA) (S. aureus (ATCC 25923) [3]): 32^c mm
- Zone (MRSA) [4]: 34 mm
- MIC (MSSA) (S. aureus (ATCC 25923) [5]): 0.25 µg/mL (≈ 0.834 µM)
- MIC (MRSA) (MRSA (ATCC 43300)): 0.25 µg/mL (≈ 0.834 µM)

SMILES: CSSCCNC(=O)CCNC(=O)[C@H](O)C(C)(C)COP(=O)(O)OP(=O)(O)OC[C@H]1O[C@@H](n2cnc3c(N)ncnc32)[C@H](O)[C@@H]1OP(=O)(O)O [Compound 25a]
- IC50 [1]: 57.1 ± 4.48 µM
- Zones of growth inhibition, S. aureus (S. aureus (ATCC 25923) [6]): 0 mm
- Zones of growth inhibition, MRSA [7]: 0 mm
- IC50 [2]: > 300 µM

SMILES: CCC(C)SSCCNC(=O)CCNC(=O)[C@H](O)C(C)(C)COP(=O)(O)OP(=O)(O)OC[C@H]1O[C@@H](n2cnc3c(N)ncnc32)[C@H](O)[C@@H]1OP(=O)(O)O (stereo partly drawn) [Compound 25c]
- IC50 [1]: > 300 µM
- Zones of growth inhibition, S. aureus (S. aureus (ATCC 25923) [6]): 0 mm
- Zones of growth inhibition, MRSA [7]: 0 mm
- IC50 [2]: > 300 µM

SMILES: CCCCSSCCNC(=O)CCNC(=O)[C@H](O)C(C)(C)COP(=O)(O)OP(=O)(O)OC[C@H]1O[C@@H](n2cnc3c(N)ncnc32)[C@H](O)[C@@H]1OP(=O)(O)O [Compound 25d]
- IC50 [1]: > 300 µM
- IC50 [2]: > 300 µM

SMILES: CCCCCCCCSSCCNC(=O)CCNC(=O)[C@H](O)C(C)(C)COP(=O)(O)OP(=O)(O)OC[C@H]1O[C@@H](n2cnc3c(N)ncnc32)[C@H](O)[C@@H]1OP(=O)(O)O [Compound 25e]
- IC50 [1]: > 300 µM
- IC50 [2]: 23.2 ± 4.6 µM

SMILES: CCCCCCCCCCSSCCNC(=O)CCNC(=O)[C@H](O)C(C)(C)COP(=O)(O)OP(=O)(O)OC[C@H]1O[C@@H](n2cnc3c(N)ncnc32)[C@H](O)[C@@H]1OP(=O)(O)O [Compound 25f]
- IC50 [1]: > 300 µM
- IC50 [2]: 2.6 ± 1.6 µM

SMILES: CC(C)CCCCCCCS(=O)(=O)CC(N)=O [Compound 30]
- activity against M. tuberculosis, in words (M. tuberculosis): good activity
